In DBAASP one finds MIC data, which are given here for eight compounds.

As a reminder, the MIC is the lowest concentration that inhibits growth of the organism. A higher MIC goes with a less susceptible organism.

In brackets after ≈: the same amount, converted by molar mass.

Experiment in all cases: ≥ marks a high value that may be exact or a test limit, other limits are often not marked, values filed in µg/mL are converted to µM
For test [1], the system named is Bacillus cereus ATCC 14579.
Test [2] relates to Bacillus subtilis ATCC 23858.
Test [3] concerns Listeria monocytogenes ATCC 7644.
Test [4] has as its system Staphylococcus aureus ATCC 33591.
For test [5], the system named is Escherichia coli ATCC 25922.
Test [6] concerns Pseudomonas aeruginosa ATCC 27853.
Test [7] relates to Staphylococcus aureus ATCC 29313.
Test [8] has as its system Xanthomonas axonopodis pv. glycines ISBF 327.
Test [9] concerns Klebsiella pneumoniae ATCC 700603.
For test [10], the system named is Pseudomonas aeruginosa PA006.
The subject of test [11] is Pseudomonas aeruginosa PAO1.
Test [12] concerns Pseudomonas aeruginosa Pa1-SA2.
Test [13] deals with Pseudomonas aeruginosa Pa4-SA2.
In test [14] the test system is Salmonella enterica subsp. enterica serovar Typhimurium ATCC 14028.
The test system of test [15] is Klebsiella pneumoniae ATCC 13883.
Test [16] has as its system Listeria monocytogenes ATCC 35152.
Test [17] deals with Staphylococcus aureus ATCC 25923.
Test [18] concerns Bacillus subtilis ATCC 6051.
Test [19] has as its system Escherichia coli NEB5alpha.
For test [20], the system named is Erwinia amylovora PMV 6076.
The subject of test [21] is Pseudomonas syringae pv. syringae EPS 94.
Test [22] concerns Xanthomonas campestris pv. Vesicatoria 2133-2.
For test [23], the system named is Candida albicans 01U.
The subject of test [24] is Candida albicans 38U.
Test [25] concerns Candida parapsilosis.
In test [26] the test system is Cryptococcus neoformans L26.
Test [27] has as its system Cryptococcus neoformans L30.
The subject of test [28] is Trichophyton mentagrophytes.
In test [29] the test system is Trichophyton rubrum.
For test [30], the system named is Escherichia coli K12 MG1655.
The subject of test [31] is Staphylococcus aureus 68 HER 1049.

Take `CC[C@H](C)[C@H](NC(=O)[C@H](CC(C)C)NC(=O)[C@@H]1CCCN1C(=O)[C@H](CC(C)C)NC(=O)[C@@H](N)Cc1ccccc1)C(=O)N[C@@H](CC(C)C)C(=O)N1CCC[C@H]1C(=O)N[C@@H](CO)C(=O)N[C@H](C(=O)N[C@H](C(=O)N[C@H](C(=O)N[C@@H](C)C(=O)N[C@@H](CC(C)C)C(=O)N[C@@H](CO)C(=O)N[C@@H](CO)C(=O)N[C@@H](Cc1ccccc1)C(=O)N[C@@H](CC(C)C)C(=O)N[C@@H](CCCCN)C(=O)N[C@@H](CCC(N)=O)C(=O)NCC(=O)O)[C@@H](C)O)C(C)C)[C@@H](C)CC` [FLPLILPSIVTALSSFLKQG]: the MIC in test [1] was 23.3 µM (≈ 50 µg/mL); in test [2], 23.3 µM (≈ 50 µg/mL); in [3], at least 46.6 µM; in test [4], 11.7 µM (≈ 25.1 µg/mL).

Turning to `CC[C@H](C)[C@H](NC(=O)[C@@H](NC(=O)[C@H](CCCCN)NC(=O)[C@H](CCCCN)NC(=O)[C@H](CC(C)C)NC(=O)[C@@H](NC(=O)[C@H](CC(N)=O)NC(=O)[C@H](CC(C)C)NC(=O)CN)[C@@H](C)O)C(C)C)C(=O)N[C@@H](CCC(N)=O)C(=O)NCC(=O)N[C@@H](CC(C)C)C(=O)N[C@@H](Cc1cnc[nH]1)C(=O)N[C@@H](CCC(=O)O)C(=O)N[C@H](C(=O)N[C@H](C(=O)N[C@@H](CCCCN)C(=O)N[C@@H](CC(C)C)C(=O)N[C@H](C(=O)N[C@@H](CC(N)=O)C(=O)N[C@@H](CC(N)=O)C(=O)N[C@@H](Cc1cnc[nH]1)C(=O)N[C@@H](C)C(N)=O)C(C)C)[C@@H](C)CC)C(C)C` [GLNTLKKVIQGLHEVIKLVNNHA], the MIC in [5] turned out to be 6 µM (≈ 15.2 µg/mL); in test [6] it was 50 µM (≈ 127 µg/mL); in test [7], 6 µM (≈ 15.2 µg/mL); in test [8] it was 2 µM (≈ 5.08 µg/mL).

In the case of `CC[C@H](C)[C@H](NC(=O)[C@H](CCCCN)NC(=O)CNC(=O)[C@@H](NC(=O)[C@H](C)NC(=O)[C@H](Cc1cnc[nH]1)NC(=O)[C@H](C)NC(=O)[C@@H](NC(=O)[C@H](CC(C)C)NC(=O)[C@H](CCC(N)=O)NC(=O)[C@H](CCCCN)NC(=O)CNC(=O)[C@H](C)NC(=O)[C@H](CC(=O)O)NC(=O)[C@H](CCCCN)NC(=O)[C@@H](NC(=O)[C@@H](NC(=O)[C@H](CC(=O)O)NC(=O)[C@H](Cc1ccccc1)NC(=O)[C@@H](NC(=O)CN)C(C)C)[C@@H](C)CC)[C@@H](C)CC)C(C)C)[C@@H](C)O)C(=O)N[C@@H](C)C(=O)N[C@@H](CCC(=O)O)C(=O)N[C@@H](CCCCN)C(=O)N[C@H](C(N)=O)C(C)C` [GVFDIIKDAGKQLVAHATGKIAEKV], the MIC in test [5] was over 307 µM; in test [9], over 307 µM; in test [6], 392 µM (≈ 1020 µg/mL); in test [10], 6.13 µM (≈ 16 µg/mL); in [11] it was 196 µM (≈ 512 µg/mL); in [12], at least 98.1 µM. Besides, the results for the MIC in [13], in test [14] and in [7] were at least 49.1 µM, over 307 µM and at least 307 µM, respectively.

With `CSCC[C@H](NC(=O)[C@H](CCCCN)NC(=O)[C@H](CCCCN)NC(=O)[C@H](CC(N)=O)NC(=O)[C@H](CCCN=C(N)N)NC(=O)[C@H](CS)NC(=O)[C@H](CCCCN)NC(=O)[C@@H](N)CCCCN)C(=O)N[C@@H](CCC(=O)O)C(=O)N[C@H](C(=O)N[C@@H](CO)C(=O)N[C@@H](CCCN=C(N)N)C(N)=O)C(C)C` [KKCRNKKMEVSR], the MIC in test [5] is 26.5 µM (≈ 40 µg/mL); in test [15], 19.9 µM (≈ 30 µg/mL); in [16] it was 26.5 µM (≈ 40 µg/mL); in [6], 39.8 µM (≈ 60 µg/mL); in [17] it was 16.6 µM (≈ 25 µg/mL).

Regarding `CC[C@H](C)[C@H](NC(=O)[C@@H]1CCCN1C(=O)[C@H](Cc1cnc[nH]1)NC(=O)[C@H](CCCCN)NC(=O)[C@@H]1CCCN1C(=O)[C@@H](N)CCCN=C(N)N)C(=O)N[C@@H](CCCCN)C(=O)N[C@@H](Cc1cnc[nH]1)C(=O)N[C@@H](CCC(N)=O)C(=O)NCC(=O)N[C@@H](CC(C)C)C(=O)N1CCC[C@H]1C(=O)N[C@@H](CCC(N)=O)C(=O)N[C@@H](CCC(=O)O)C(=O)N[C@H](C(=O)N[C@@H](CC(C)C)C(=O)N[C@@H](CC(N)=O)C(=O)N[C@@H](CCC(=O)O)C(=O)N[C@@H](CC(N)=O)C(=O)N[C@@H](CC(C)C)C(=O)N[C@@H](CC(C)C)C(=O)N[C@@H](CCCN=C(N)N)C(=O)N[C@@H](Cc1ccccc1)C(=O)N[C@@H](Cc1ccccc1)C(=O)O)C(C)C` [RPKHPIKHQGLPQEVLNENLLRFF], the MIC is 23.6 µM (≈ 68.8 µg/mL) in test [18], 189 µM (≈ 550 µg/mL) in test [5] and at least 47.2 µM in test [19].

`CC[C@H](C)[C@H](NC(=O)[C@H](CCCCN)NC(=O)[C@H](CCCCN)NC(=O)[C@H](Cc1ccccc1)NC(=O)[C@H](CC(C)C)NC(=O)[C@H](CCCCN)NC(=O)[C@H](CCCCN)NC(=O)[C@H](C)NC(=O)[C@@H]1CCCN1C(=O)CNC(=O)[C@H](C)NC(=O)[C@H](CC(C)C)NC(=O)[C@H](Cc1ccc(O)cc1)NC(=O)[C@H](CCCCN)NC(=O)[C@H](CC(C)C)NC(=O)[C@@H](NC(=O)[C@H](CCCCN)NC(=O)[C@H](CCCCN)NC(=O)[C@H](Cc1ccccc1)NC(=O)[C@H](CC(C)C)NC(=O)[C@H](CCCCN)NC(=O)[C@H](CCCCN)NC(=O)[C@@H](N)CO)[C@@H](C)CC)C(=O)N[C@@H](CC(C)C)C(=O)N[C@@H](CCCCN)C(=O)N[C@@H](Cc1ccc(O)cc1)C(=O)N[C@@H](CC(C)C)C(=O)O` [SKKLFKKILKYLAGPAKKLFKKILKYL]: the figures for the MIC in test [20], in [21] and in [22] were 14.1 µM (≈ 45.4 µg/mL), 8.66 µM (≈ 27.8 µg/mL) and 14.1 µM (≈ 45.4 µg/mL), respectively.

Regarding `CC[C@H](C)[C@H](NC(=O)[C@H](CC(C)C)NC(=O)[C@H](CCC(=O)O)NC(=O)[C@H](CO)NC(=O)[C@H](CCCN=C(N)N)NC(=O)[C@@H](N)CO)C(=O)N[C@H](C(=O)N[C@@H](Cc1cnc[nH]1)C(=O)N[C@@H](CCC(N)=O)C(=O)N[C@@H](CCCN=C(N)N)C(=O)N[C@@H](CCCN=C(N)N)C(=O)N[C@@H](CS)C(N)=O)C(C)C` [SRSELIVHQRRC], the MIC in [23] was at least 86.3 µM; in test [24] it was at least 43.1 µM; in [25], at least 173 µM; in test [26], at least 173 µM; in [27], at least 173 µM; in [28], at least 173 µM. Further, the MIC in test [29] is at least 86.3 µM.

Consider `CC[C@H](C)[C@H](NC(=O)[C@H](CCCN=C(N)N)NC(=O)[C@H](CCCCN)NC(=O)[C@H](Cc1c[nH]c2ccccc12)NC(=O)[C@H](CCCN=C(N)N)NC(=O)[C@H](CCCCN)NC(=O)[C@H](Cc1c[nH]c2ccccc12)NC(=O)[C@@H](N)Cc1c[nH]c2ccccc12)C(=O)N[C@@H](CCCN=C(N)N)C(=O)N[C@@H](CCCN=C(N)N)C(=O)N[C@H](C(=O)N[C@@H](Cc1ccccc1)C(=O)N[C@@H](CCSC)C(=O)N[C@@H](CCSC)C(=O)N[C@H](C(=O)O)C(C)C)[C@@H](C)CC` [WWKRWKRIRRIFMMV], for which the minimum inhibitory concentration (MIC) stood at 1.82 µM (≈ 4 µg/mL) in [30] and 3.65 µM (≈ 8 µg/mL) in [31].
